# Measurements: patent US20090062388A1, “Use of acetyl L-carnitine for the preparation of a medication for the preventive therapy for pain” (Sigma-Tau Industrie Farmaceutiche Riunite S.p.A., priority 2001, published 2009)
# Read-outs that look alike come from different tables or passages of the source.
# Tested on: mice
# Assay type: in vivo
# Conditions: for antagonism of the analgesia induced by acetyl L-carnitine: acetyl L-carnitine 100 mg/kg BID SC for 7 days, hot plate; for Hot plate Licking latency: antagonist pre-treatment + PS (no acetyl L-carnitine)
# Description: The analgesia induced by the acetyl L-carnitine (100 mg/kg BID, SC for 7 days) was determined in presence of some antagonists of some neurotransmission systems deeply involved in the regulation of pain threshold, and in particular the naloxone (opioid antagonist), the CGP-35348 (GABAB antagonist) and the alpha-methyl-p-tyrosine (inhibitor of the synthesis of cathecolamines).
# In agreement with the standard procedures known by the person skilled in the art, the doses used for any antagonist were the minimum required to prevent the analgesia induced by morphine (7 mg/kg SC) (1, 100 e 200 mg/kg IP), baclofen (4 mg/kg SC) and amphetamine (1 mg/kg SC) (non-reported data) respectively.
# [1] = dose (naloxone 1, CGP 35348 100, alpha-M-p-T 200, atropine 5 mg/kg, HC-3 1 μg, pirenzepine 0.1 μg, S-(−)-ET-126 0.1 μg ICV), before treatment
SMILES,antagonism of the analgesia induced by acetyl L-carnitine,Hot plate Licking latency (after treatment 15 min) [s],Hot plate Licking latency (after treatment 30 min) [s],Hot plate Licking latency (after treatment 45 min) [s],Hot plate Licking latency [1] [s]
"CN1CCC(OC(=O)[C@H](CO)c2ccccc2)CC1 [S-(−)-ET-126, reference compound]",capable to antagonize the increase of the pain threshold,15.3 ± 1.8,16.2 ± 1.9,16.1 ± 2.0,15.0 ± 1.0
"CN1[C@@H]2CC[C@H]1C[C@@H](OC(=O)C(CO)c1ccccc1)C2 (some centres unmarked) [Atropine, atropine, reference compound]",capable to antagonize the increase of the pain threshold,13.7 ± 1.1,15.4 ± 1.2,13.1 ± 1.9,14.1 ± 0.9
"CN1CCN(CC(=O)N2c3ccccc3C(=O)Nc3cccnc32)CC1 [Pirenzepine, pirenzepine, reference compound]",capable to antagonize the increase of the pain threshold,13.9 ± 1.5,14.5 ± 1.8,15.5 ± 1.5,13.6 ± 0.8
"C[N+]1(C)CCOC(O)(c2ccc(-c3ccc(C4(O)C[N+](C)(C)CCO4)cc3)cc2)C1.[Br-].[Br-] (centres unmarked) [HC-3, hemicholinium-3, reference compound]",capable to antagonize the increase of the pain threshold,13.7 ± 1.1,15.4 ± 1.2,13.1 ± 1.9,14.1 ± 0.9
"C=CCN1CC[C@]23c4c5ccc(O)c4O[C@H]2C(=O)CC[C@@]3(O)[C@H]1C5 [Naloxone, naloxone, reference compound]",–,13.3 ± 1.3,13.1 ± 1.1,14.2 ± 1.3,14.0 ± 0.7
"CC(N)(Cc1ccc(O)cc1)C(=O)O (stereo not drawn) [Alpha-M-p-T, alpha-methyl-p-tyrosine, reference compound]",–,15.4 ± 1.6,16.1 ± 1.8,13.6 ± 1.5,14.6 ± 0.9
"CCOC(OCC)P(=O)(O)CCCN [CGP 35348, reference compound]",–,12.4 ± 1.0,12.6 ± 1.3,12.2 ± 1.6,14.4 ± 0.8
